Like-named read-outs stand apart in the source and are kept apart here.
Key:
[1] = target: T1, canine TRPM8 (Canis lupus familiaris, UniProt Q1A7N1); assay: In vitro canine TRPM8 functional assay (Ca2+-sensitive fluorescent dye, FLIPR or FDSS, icilin challenge); type: cell-based; settings: for inhibition at 0.2 µM: 0.2 μM compound
T1 construct: expressed in transfected cells
In short: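 Canine TRPM8 stably expressed in HEK293; compound added 5 min before icilin challenge (~80% max response), with fluorescent Ca2+ signal tracked throughout.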

[2] = tested on: icilin-induced "wet-dog" shakes (WDS); assay: Inhibition of icilin-induced "wet-dog" shakes in rats; type: in vivo; settings: HCl salt, 10 mpk PO, vehicle HPbCD; male Sprague Dawley rats; [1-(test compound WDS count/vehicle WDS count)]x100
Protocol: Male Sprague Dawley rats (220-450 g, Charles River Labs, n=6-9/treatment) were used to evaluate the ability of compounds selected from the group consisting of formula (I) and formula (II) to block icilin-induced “wet-dog” shakes (WDS). Compounds selected from the group consisting of formula (I) and formula (II) were administered in an appropriate vehicle, such as hydroxypropyl-β-cyclodextrin (HPβCD), methocellulose, 10% Solutol, or H2O, or the like, by the appropriate route, i.p. or p.o., 30-120 minutes before icilin. Icilin was administered in PEG-400 or 10% solutol/H2O, at 1.0 or 3.0 mg/kg, i.p. and spontaneous “wet-dog” shakes were counted 10-20 minutes post-icilin. Results are presented as a percent inhibition of shakes, which was calculated as [1−(test compound WDS count/vehicle WDS count)]×100.

[3] = HEK293 cells stably expressing canine TRPM8, icilin challenge
[4] = HEK293 cells stably expressing canine TRPM8, icilin at approx. 80% maximal response, eight-point dose-response, single determinations unless otherwise noted, read-out: IC50

T1 sequence (Q1A7N1 1-1104): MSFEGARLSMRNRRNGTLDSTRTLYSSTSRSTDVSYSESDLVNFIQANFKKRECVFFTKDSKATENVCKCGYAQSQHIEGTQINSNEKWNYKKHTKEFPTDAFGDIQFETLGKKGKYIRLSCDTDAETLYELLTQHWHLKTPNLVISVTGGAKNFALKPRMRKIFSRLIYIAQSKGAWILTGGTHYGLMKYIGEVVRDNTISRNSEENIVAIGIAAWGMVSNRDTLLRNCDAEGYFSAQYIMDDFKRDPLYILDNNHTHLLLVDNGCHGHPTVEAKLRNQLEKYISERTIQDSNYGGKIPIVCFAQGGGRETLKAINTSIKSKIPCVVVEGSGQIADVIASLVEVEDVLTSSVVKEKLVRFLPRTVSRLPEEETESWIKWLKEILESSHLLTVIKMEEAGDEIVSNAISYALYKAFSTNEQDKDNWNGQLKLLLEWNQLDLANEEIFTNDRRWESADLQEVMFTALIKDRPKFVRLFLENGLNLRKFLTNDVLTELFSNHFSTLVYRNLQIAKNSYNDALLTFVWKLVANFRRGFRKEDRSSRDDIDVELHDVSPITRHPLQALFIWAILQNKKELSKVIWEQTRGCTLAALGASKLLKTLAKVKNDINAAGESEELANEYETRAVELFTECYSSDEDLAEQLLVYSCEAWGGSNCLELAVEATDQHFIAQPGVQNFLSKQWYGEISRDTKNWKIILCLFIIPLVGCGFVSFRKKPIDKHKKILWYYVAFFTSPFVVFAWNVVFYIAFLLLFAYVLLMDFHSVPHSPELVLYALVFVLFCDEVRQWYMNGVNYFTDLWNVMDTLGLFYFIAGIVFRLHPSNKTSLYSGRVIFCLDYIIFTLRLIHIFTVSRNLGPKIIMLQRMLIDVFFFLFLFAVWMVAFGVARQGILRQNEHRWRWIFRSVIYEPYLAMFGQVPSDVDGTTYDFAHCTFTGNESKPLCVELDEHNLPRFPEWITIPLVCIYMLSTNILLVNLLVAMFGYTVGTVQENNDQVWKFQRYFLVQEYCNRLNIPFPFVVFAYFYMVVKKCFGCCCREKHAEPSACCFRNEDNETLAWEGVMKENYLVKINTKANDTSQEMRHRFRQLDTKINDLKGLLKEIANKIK

With `Cc1c(N(Cc2ccc(OC(F)(F)F)cc2)S(=O)(=O)CCN(C)Cc2ccccc2)sc2ccccc12` [Cpd 14, N-(3-Methylbenzo[b]thiophen-2-yl)-N-(4-trifluoromethoxy-benzyl)-2-(benzyl-methylamino)ethylsulfonamide] the inhibition at 0.2 µM [1, 3] was 102%, the IC50 [1, 4] was 16 nM and the “% Inhibition (of wet-dog shakes)” value [2] was 0%.
In the case of `Cc1c(N(Cc2ccc(OC(F)(F)F)cc2)S(=O)(=O)CCN(CC(C)C)CC(C)C)sc2ccccc12` [Cpd 16, N-(3-Methylbenzo[b]thiophen-2-yl)-N-(4-trifluoromethoxy-benzyl)-2-(diisobutylamino)ethylsulfonamide], the inhibition at 0.2 µM [1, 3] is reported as 101%, the IC50 [1, 4] is reported as 6 nM and the “% Inhibition (of wet-dog shakes)” value [2] is reported as 0%.
Work on `Cc1c(N(Cc2ccc(OC(F)(F)F)cc2)S(=O)(=O)CCN2CCC(c3ccccc3)CC2)sc2ccccc12` [Cpd 25, N-(3-Methylbenzo[b]thiophen-2-yl)-N-(4-trifluoromethoxy-benzyl)-2-(4-phenylpiperidin-1-yl)ethylsulfonamide] yielded an IC50 [1] of 29 nM, an inhibition at 0.2 µM [1, 3] of 100% and an IC50 ([1]; IC50, determination of HCl salt, HEK293 cells stably expressing canine TRPM8, icilin challenge) of 26 nM. The inhibition at 0.2 µM ([1]; determination of HCl salt) was 100% and the “% Inhibition (of wet-dog shakes)” value [2] was 12.7%.
For `Cc1c(N(CCC2CC2)S(=O)(=O)CCN(CC(C)C)CC(C)C)sc2ccccc12` [Cpd 74, N-(3-Methylbenzo[b]thiophen-2-yl)-N-(2-cyclopropyl-ethyl)-2-(diisobutylamino)ethylsulfonamide], the inhibition at 0.2 µM [1, 3] was 100%, the IC50 [1, 4] was 17 nM and the “% Inhibition (of wet-dog shakes)” value [2] was 26%.
For `Cc1c(N(CCCCC(F)(F)F)S(=O)(=O)CCN(CC(C)C)CC(C)C)sc2ccccc12` [Cpd 78, N-(3-Methylbenzo[b]thiophen-2-yl)-N-(5,5,5-trifluoro-n-pent-1-yl)-2-(di-iso-butylamino)ethylsulfonamide], the inhibition at 0.2 µM [1, 3] was 100%, the IC50 [1, 4] was 18 nM and the “% Inhibition (of wet-dog shakes)” value [2] was 3%.
`Cc1c(N(Cc2ccc(F)c(F)c2)S(=O)(=O)CCN(CC(C)C)CC(C)C)sc2ccccc12` [Cpd 80, N-(3-Methylbenzo[b]thiophen-2-yl)-N-(3,4-difluoro-benzyl)-2-(di-iso-butylamino)ethylsulfonamide] was tested, and the inhibition at 0.2 µM [1, 3] was 100%, the IC50 [1, 4] was 26 nM and the “% Inhibition (of wet-dog shakes)” value [2] was 0%.
Molecule `CCCN(CCS(=O)(=O)N(CCC1CC1)c1sc2ccccc2c1C)CC(C)C` [Cpd 95, N-(3-Methylbenzo[b]thiophen-2-yl)-N-(2-cyclopropyl-ethyl)-2-(n-propyl-isobutylamino)ethylsulfonamide] has an inhibition at 0.2 µM [1, 3] of 103% and an IC50 [1, 4] of 23 nM.
`CC(C)CN(CCS(=O)(=O)N(Cc1ccc(OC(F)(F)F)cc1)c1ccc2ccccc2c1)CC(C)C` [Cpd 96, N-(Naphth-2-yl)-N-(4-trifluoromethoxy-benzyl)-2-(diisobutylamino)-ethylsulfonamide] gave an inhibition at 0.2 µM [1, 3] of 72% and an IC50 [1, 4] of 153 nM.

— patent publication US8148422B2, “Sulfonamides as TRPM8 modulators” (Janssen Pharmaceutica, NV, priority 2008, dated 2012)
